The text below walks through data of patent US11149031B2, “Substituted N-(3-fluoropropyl)-pyrrolidine compounds, processes for their preparation and therapeutic uses thereof” (SANOFI, priority 2016, dated 2021).

Assay [1] has as its target His6-ERα298-554 WT (ERα ligand-binding domain) (Homo sapiens (Human), UniProt P03372). The experiment in a line: Test A: biochemical antagonist activity, LanthaScreen TR-FRET ERα coactivator assay, WT. As to conditions: protocol with 3 nM estradiol; read-out: Antagonism WT IC50. In a few lines:
(§1)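 Compounds were added to receptor LBD (0.5 nM), terbium-labelled His6 antibody (0.5 nM), PGC1a coactivator peptide (250 nM) and estradiol at 3 nM or 10 nM. After incubating overnight at room temperature, the 520:495 nm ratio gave IC50 values by four-parameter logistic regression.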

The target in assay [2] is His6-ERα298-554 D538G mutant (ERα ligand-binding domain) (Homo sapiens (Human), UniProt P03372, D538G). The experiment in a line: Test A: biochemical antagonist activity, LanthaScreen TR-FRET ERα coactivator assay, D538G mutant. The note with it: protocol with 3 nM estradiol; read-out: Antagonism D538G IC50. The method, boiled down: as §1
Chain of His6-ERα298-554 D538G mutant (ERα ligand-binding domain) (P03372 298-554 D538G): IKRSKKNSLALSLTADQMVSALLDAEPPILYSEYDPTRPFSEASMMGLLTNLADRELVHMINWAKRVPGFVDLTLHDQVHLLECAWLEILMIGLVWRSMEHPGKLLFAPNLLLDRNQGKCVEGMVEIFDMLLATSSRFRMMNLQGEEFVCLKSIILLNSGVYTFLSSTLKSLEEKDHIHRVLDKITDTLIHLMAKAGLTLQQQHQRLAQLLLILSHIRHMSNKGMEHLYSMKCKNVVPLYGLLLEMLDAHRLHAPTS
(In general: In TR-FRET formats the signal depends on donor and acceptor labels being close together.)

Assay [3] deals with His6-ERα298-554 Y537S mutant (ERα ligand-binding domain) (Homo sapiens (Human), UniProt P03372, Y537S). The experiment in a line: Test A: biochemical antagonist activity, LanthaScreen TR-FRET ERα coactivator assay, Y537S mutant. As to conditions: protocol with 3 nM estradiol; read-out: Antagonism Y537S IC50. The method, boiled down: as §1
Chain of His6-ERα298-554 Y537S mutant (ERα ligand-binding domain) (P03372 298-554 Y537S): as the sequence (P03372 298-554 D538G) above, with Y240S, G241D counted along it
Assay [4] concerns MCF7 cells (breast tumor cells) WT. As to the kind of experiment: Test B: cell proliferation/viability assay (CellTiter-Glo) on MCF7 WT. The note with it: Homo sapiens, MCF7, 168 h, 7 days of compound exposure. It is filed as cell-based. In a few lines: (§2)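 Seed cells in phenol red-free MEM plus 5% charcoal dextran-stripped FBS. Next day add compound, 9-point 1:5 series, 3-0.000001 μM final. After 7 days, add CellTiter-Glo, read luminescence, and normalise to untreated after subtracting cell-free background.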

Assay [5] has as its system MCF7 cells expressing mutant estrogen receptor Tyr 537 Ser. As to the kind of experiment: Test B: cell proliferation/viability assay (CellTiter-Glo) on MCF7 Tyr 537 Ser mutant. It is filed as cell-based. The note with it: Homo sapiens, MCF7, 168 h, MCF7 cells expressing ER Tyr 537 Ser mutant, 7 days of compound exposure, read-out: proliferation MCF7 Y537S IC50. The method, boiled down:
as §2
Background: Cellular ATP, detected with luciferase, serves as a proxy for viable cell number.

Assay [6] deals with MCF7 cells expressing mutant estrogen receptor Asp 538 Gly. As to the kind of experiment: Test B: cell proliferation/viability assay (CellTiter-Glo) on MCF7 Asp 538 Gly mutant. It is filed as cell-based. The note with it: Homo sapiens, MCF7, 168 h, MCF7 cells expressing ER Asp 538 Gly mutant, 7 days of compound exposure, read-out: proliferation MCF7 D538G IC50. The method, boiled down: as §2

A further assay addresses ERα in MCF7 cells (Homo sapiens (Human), UniProt P03372). As to the kind of experiment: Test C: estrogen receptor degradation activity, ERα in cell western assay in MCF7 cells. It is filed as cell-based. The note with it: for DC50: 4 hours post compound addition, ERα in cell western, read-out: Degradation IC50; for % Degradation at 3 μM: 4 hours, relative to fulvestrant. The method, boiled down:
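ERα level is read as integrated green fluorescence, with DNA taken from red Syto-64 signal, after MCF7 cells are exposed to compound for 4 hours. Cells grow in hormone-depleted medium (5% charcoal-dextran stripped FBS, no phenol red); fulvestrant at 0.1 μM is the positive control.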

Chain of His6-ERα298-554 WT (ERα ligand-binding domain) (P03372 298-554): as the sequence (P03372 298-554 D538G) above, with G241D counted along it
Chain of ERα in MCF7 cells (P03372 whole entry): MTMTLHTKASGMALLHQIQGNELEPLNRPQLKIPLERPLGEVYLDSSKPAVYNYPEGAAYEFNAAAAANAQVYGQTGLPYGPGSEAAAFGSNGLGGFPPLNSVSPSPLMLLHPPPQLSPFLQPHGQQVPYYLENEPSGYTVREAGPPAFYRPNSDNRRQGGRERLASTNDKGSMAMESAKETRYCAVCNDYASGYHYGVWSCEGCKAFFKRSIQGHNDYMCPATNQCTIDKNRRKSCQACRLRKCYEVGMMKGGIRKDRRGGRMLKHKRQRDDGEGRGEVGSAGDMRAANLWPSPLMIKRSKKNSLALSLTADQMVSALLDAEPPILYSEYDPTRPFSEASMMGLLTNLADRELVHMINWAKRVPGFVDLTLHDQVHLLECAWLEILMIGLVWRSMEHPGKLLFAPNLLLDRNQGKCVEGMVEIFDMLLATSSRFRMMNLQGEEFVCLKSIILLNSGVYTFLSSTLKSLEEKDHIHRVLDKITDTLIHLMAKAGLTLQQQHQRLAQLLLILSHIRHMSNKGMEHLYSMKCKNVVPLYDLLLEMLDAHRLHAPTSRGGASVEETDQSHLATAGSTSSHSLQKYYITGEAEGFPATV

On to `Oc1ccc2c(c1)OCCC(c1ccc(Cl)cc1F)=C2c1ccc(O[C@H]2CCN(CCCF)C2)cc1` [Example 98, 4-(4-chloro-2-fluoro-phenyl)-5-[4-[(3S)-1-(3-fluoropropyl)pyrrolidin-3-yl]oxyphenyl]-2,3-dihydro-1-benzoxepin-8-ol], for which the IC50 was 14 nM in assay [1]; 106 nM in assay [2]; 40 nM in assay [3]; 0.5 nM in assay [4]; 5 nM in assay [5]; 2 nM in assay [6]. Also, at ERα in MCF7 cells, the DC50 was found to be 0.5 nM. In addition, the “% Degradation at 3 μM” value at ERα in MCF7 cells is reported as 93%.

For `Oc1ccc2c(c1)OCCC(c1ccc(Cl)cc1Cl)=C2c1ccc(O[C@H]2CCN(CCCF)C2)cc1` [Example 102, 4-(2,4-dichlorophenyl)-5-[4-[(3S)-1-(3-fluoropropyl)pyrrolidin-3-yl]oxyphenyl]-2,3-dihydro-1-benzoxepin-8-ol], the IC50 in assay [1] turned out to be 12 nM; in assay [2] it was 106 nM; in assay [3], 51 nM; in assay [4], 0.5 nM; in assay [5], 5 nM; in assay [6], 0.8 nM. The DC50 on ERα in MCF7 cells is 2 nM. Further, the “% Degradation at 3 μM” value at ERα in MCF7 cells is recorded as 87%.

In the case of `Oc1ccc2c(c1)OCCC(c1ccc3cc[nH]c3c1)=C2c1ccc(O[C@H]2CCN(CCCF)C2)cc1` [Example 103, 5-[4-[(3S)-1-(3-fluoropropyl)pyrrolidin-3-yl]oxyphenyl]-4-(1H-indol-6-yl)-2,3-dihydro-1-benzoxepin-8-ol], the IC50 in assay [1] came to 38 nM; in assay [2], 252 nM; in assay [3], 101 nM; in assay [4] it was 0.3 nM; in assay [5], 4 nM; in assay [6] it was 1 nM. The DC50 at ERα in MCF7 cells amounted to 3 nM. On ERα in MCF7 cells, the “% Degradation at 3 μM” value is listed as 89%.

`Cc1c(Cl)cccc1C1=C(c2ccc(O[C@H]3CCN(CCCF)C3)cc2)c2ccc(O)c(F)c2OCC1` [Example 105, 4-(3-chloro-2-methyl-phenyl)-9-fluoro-5-[4-[(3S)-1-(3-fluoropropyl)pyrrolidin-3-yl]oxyphenyl]-2,3-dihydro-1-benzoxepin-8-ol]: the IC50 in assay [1] is 5 nM; in assay [2], 38 nM; in assay [3] it was 23 nM; in assay [4], 0.5 nM; in assay [5], 11 nM; in assay [6] it was 2 nM. Also, on ERα in MCF7 cells, the DC50 was determined as 0.2 nM. Moreover, the “% Degradation at 3 μM” value at ERα in MCF7 cells was found to be 91%.

For the compound `Cc1ccc(C2=C(c3ccc(O[C@H]4CCN(CCCF)C4)cc3)c3ccc(O)c(F)c3OCC2)c(F)c1` [Example 106, 9-fluoro-4-(2-fluoro-4-methyl-phenyl)-5-[4-[(3S)-1-(3-fluoropropyl)pyrrolidin-3-yl]oxyphenyl]-2,3-dihydro-1-benzoxepin-8-ol], the IC50 in assay [1] turned out to be 5 nM; in assay [2], 31 nM; in assay [3] it was 16 nM; in assay [4] it was 0.7 nM; in assay [5], 12 nM; in assay [6], 3 nM. Besides, the DC50 on ERα in MCF7 cells stood at 0.5 nM. In addition, the “% Degradation at 3 μM” value at ERα in MCF7 cells is 90%.

In the case of `Oc1ccc2c(c1F)OCCC(c1ccc3c(c1)CCN3)=C2c1ccc(O[C@H]2CCN(CCCF)C2)cc1` [Example 107, 9-fluoro-5-[4-[(3S)-1-(3-fluoropropyl)pyrrolidin-3-yl]oxyphenyl]-4-indolin-5-yl-2,3-dihydro-1-benzoxepin-8-ol], the IC50 stood at 19 nM in assay [1]; 79 nM in assay [2]; 55 nM in assay [3]; 19 nM in assay [4]; 147 nM in assay [5]; 33 nM in assay [6]. Also, the DC50 on ERα in MCF7 cells was determined as 2 nM. On ERα in MCF7 cells, the “% Degradation at 3 μM” value amounted to 82%.
